According to patent US6329392A, “Substituted piperidines useful for the treatment of allergic diseases” (Aventis Pharmaceuticals, Inc., priority 1998, dated 2001):

Columns and labels:
H1 receptor = biological target: T1, H1 receptor (Cavia porcellus, UniProt P31389); test: Histamine (H1) antagonism in guinea pig ileum; type: cell-based; details: read-out: H1 Receptor Antagonism, pA2, in vitro (converted)
T1 construct: A piece of ileum, about 20 cm in length, is removed and cut into 2 cm pieces; from tissue; host or cells: ileum of male Hartley guinea pigs
T1 sequence (P31389 whole entry): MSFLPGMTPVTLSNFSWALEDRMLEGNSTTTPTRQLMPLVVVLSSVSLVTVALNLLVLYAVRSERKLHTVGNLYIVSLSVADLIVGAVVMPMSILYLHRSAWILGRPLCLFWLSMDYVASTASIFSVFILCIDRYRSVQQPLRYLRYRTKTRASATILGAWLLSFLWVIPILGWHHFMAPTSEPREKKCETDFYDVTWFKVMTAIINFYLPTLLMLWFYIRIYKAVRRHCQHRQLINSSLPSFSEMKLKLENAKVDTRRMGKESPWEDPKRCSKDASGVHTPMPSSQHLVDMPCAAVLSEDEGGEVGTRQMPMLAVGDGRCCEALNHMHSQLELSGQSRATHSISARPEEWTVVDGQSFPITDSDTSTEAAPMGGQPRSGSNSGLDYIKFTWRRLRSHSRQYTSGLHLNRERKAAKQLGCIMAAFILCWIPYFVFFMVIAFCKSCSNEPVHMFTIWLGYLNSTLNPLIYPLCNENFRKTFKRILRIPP
Procedure: Male Hartley guinea pigs, weighing 200-450 grams, are sacrificed by CO2 asphyxiation. A piece of ileum, about 20 cm in length, is removed and cut into 2 cm pieces. Each ileum piece is placed in an organ bath at 37° C. containing Tyrode's solution and is constantly aerated with 95% O2 /5%CO2. Tyrode's solution has the composition: NaCl 136.9 mM, KCl […], CaCl2 1.8 mM, NaH2 PO4 0.42 mM, NaHCO3 11.9 mM, and dextrose 5.55 mM. Contractions are measured with an isometric transducer (Grass FTO3C), and are recorded on a polygraph recorder and/or a computer. The ileum strips are loaded with 1.0 grams of tension and allowed to equilibrate for a minimum of 30 minutes before starting the experiments.
The potency of the antagonism is determined by the magnitude of the shift and is expressed as a pA2 value which is the negative logarithm of the molar concentration of antagonist which produces a two-fold shift of the dose response curve to the right. The pA2 value is calculated by using Schild analysis. O. Arunlakshana and H. O. Schild, Br. J. Pharmacol Chemother. 14, 48-58 (1958).
Table 1 presents pA2 values by the method of Example 93 which indicate potency of H1 receptor antagonism and IC50 values by the method of Example 95 which indicates NK1 receptor binding affinity for representative compounds of the present invention.

NK1 receptor = biological target: T2, NK1 receptor (Cavia porcellus, UniProt P30547); test: Antagonism of iodinated tachykinin (substance P) binding to NK1 receptors in guinea pig lungs; details: read-out: NK1 Receptor Binding Affinity, IC50
T2 construct: as evaluated in guinea pig lungs (Keystone Biologicals, Cleveland, Ohio); tissue Keystone Biologicals, Cleveland, Ohio; host or cells: guinea pig lung membranes
T2 sequence (P30547 whole entry): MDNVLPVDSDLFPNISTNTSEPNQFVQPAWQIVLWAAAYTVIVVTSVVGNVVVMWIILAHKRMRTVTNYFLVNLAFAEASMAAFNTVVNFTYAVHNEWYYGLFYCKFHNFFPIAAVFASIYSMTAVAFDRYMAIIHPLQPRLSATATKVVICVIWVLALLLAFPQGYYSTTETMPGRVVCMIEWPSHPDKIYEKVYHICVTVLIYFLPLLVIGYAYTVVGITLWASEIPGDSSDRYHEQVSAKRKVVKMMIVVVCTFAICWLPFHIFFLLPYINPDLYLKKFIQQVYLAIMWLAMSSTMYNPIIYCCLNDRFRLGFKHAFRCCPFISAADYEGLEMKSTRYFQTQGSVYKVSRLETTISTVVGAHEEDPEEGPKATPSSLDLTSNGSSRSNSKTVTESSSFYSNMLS
Procedure: Antagonism of iodinated tachykinin binding to NK1 receptors by putative antagonists
One skilled in the art can measure the NK1 receptor affinity of proposed tachykinin antagonists as evaluated in guinea pig lungs (Keystone Biologicals, Cleveland, Ohio). Tissues or cells are homogenized with a Polytron in 15 volumes of 50 mM Tris-HCl buffer (pH 7.4, […]) and centrifuged. The pellet is resuspended in Tris-HCl buffer and centrifuged; the pellet is washed twice by resuspension. The final pellet is resuspended at a concentration of 40 mg/ml incubation buffer and remains at room temperature for at least 15 min prior to use. […] Incubations are performed at room temperature for 90 min; binding is terminated by addition of 50 mM Tris-HCl buffer (pH 7.4, […]) and filtration under vacuum through GF/B filters presoaked with 0.1% polyethyleneimine. Filter bound radioactivity is quantitated in a gamma counter. […] IC50 values (concentration required to inhibit 50% of receptor binding) are generated for each of the test compounds by nonlinear regression using an iterative curve fitting program (GraphPAD Inplot, San Diego, Calif.).

SMILES	Kb (H1 receptor) [nM]	IC50 (NK1 receptor) [nM]
COc1cc(C(=O)N2CCC(CCN3CCC(C(=O)c4nc5ccccc5n4Cc4ccccn4)CC3)(c3ccccc3)C2)cc(OC)c1OC (centres unmarked) [Example 37, 1-(3,4,5-Trimethoxy-benzoyl)-3-[2-[4-[1-(pyrid-2-ylmethyl)-1 H-benzoimidazole-2-carbonyl]-piperidin-1-yl]-ethyl]-3-phenyl-pyrrolidine]	25.1	17
COc1cc(C(=O)N2CCC(CCN3CCC(C(=O)c4nc5ccccc5n4Cc4ccc(C(=O)O)cc4)CC3)(c3ccccc3)C2)cc(OC)c1OC (centres unmarked) [Example 39, 1-(3,4,5-Trimethoxy-benzoyl)-3-[2-[4-[1-(4-carboxy-benzyl)-1 H-benzoimidazole-2-carbonyl]-piperidin-1-yl]-ethyl]-3-phenyl-pyrrolidine]	891	29
CCOCCn1c(C(=O)C2CCN(CCC3(c4ccccc4)CCN(C(=O)c4cc(OC)c(OC)c(OC)c4)C3)CC2)nc2ccccc21 (centres unmarked) [Example 40, 1-(3,4,5-Trimethoxy-benzoyl)-3-[2-[4-[1-(2-ethoxy-ethyl)-1 H-benzoimidazole-2-carbonyl]-piperidin-1-yl]-ethyl]-3-phenyl-pyrrolidine]	41.7	24
COc1ccc(C2(CCN3CCC(C(=O)c4nc5ccccc5n4Cc4ccc(C(=O)O)cc4)CC3)CCN(C(=O)c3cc(OC)c(OC)c(OC)c3)C2)cc1OC (centres unmarked) [Example 43]	6760	48
COc1cc(C(=O)N2CCC(CCN3CCC(C(=O)c4nc5ccccc5n4Cc4ccco4)CC3)(c3ccccc3)C2)cc(OC)c1OC (centres unmarked) [Example 44, 1-(3,4,5-Trimethoxy-benzoyl)-3-[2-[4-[1-(fur-2-ylmethyl)-1 H-benzoimidazole-2-carbonyl]-piperidin-1-yl]-ethyl]-3-phenyl-pyrrolidine]	63.1	13
COc1cc(C(=O)N2CCC(CCN3CCC(C(=O)c4nc5ccccc5n4CCOCc4ccco4)CC3)(c3ccccc3)C2)cc(OC)c1OC (centres unmarked) [Example 45, 1-(3,4,5-Trimethoxy-benzoyl)-3-[2-[4-[1-(2-fur-2-ylmethoxy-ethyl)-1 H-benzoimidazole-2-carbonyl]-piperidin-1-yl]-ethyl]-3-phenyl-pyrrolidine]	35.5	9
COc1cc(CN2CCC(CCN3CCC(O)(c4nc5ccccc5n4Cc4ccc(F)cc4)CC3)(Cc3ccccc3)C2=O)cc(OC)c1OC (centres unmarked) [Example 53, 1-(3,4,5-Trimethoxy-benzyl)-3-[2-[4-[1-(4-fluoro-benzyl)-1H-benzoimidazol-2-yl]-4-hydroxy-piperidin-1-yl]-ethyl]-3-(phenylmethyl)-2-oxo-pyrrolidine]	204	191
COc1cc(CN2CCC(CCN3CCC(O)(c4nc5ccccc5n4Cc4ccc(F)cc4)CC3)(Cc3ccc(Cl)c(Cl)c3)C2=O)cc(OC)c1OC (centres unmarked) [Example 54, 1-(3,4,5-Trimethoxy-benzvl)-3-[2-[4-[1-(4-fluoro-benzyl)-1H-benzoimidazol-2-yl]-4-hydroxy-piperidin-1-yl]-ethyl]-3-(3,4-dichloro-phenylmethyl)-2-oxo-pyrrolidine]	479	269
COc1ccc(CC2(CCN3CCC(O)(c4nc5ccccc5n4Cc4ccc(F)cc4)CC3)CCN(Cc3cc(OC)c(OC)c(OC)c3)C2=O)cc1OC (centres unmarked) [Example 55, 1-(3,4,5-Trimethoxy-benzyl)-3-[2-[4-[1-(4-fluoro-benzyl)-1H-benzoimidazol-2-yl]-4-hydroxy-piperidin-1-yl]-ethyl]-3-(3,4-dimethoxy-phenylmethyl)-2-oxo-pyrrolidine]	912	385
COc1cc(CN2CCC(CCN3CCC(O)(c4nc5ccccc5n4Cc4ccc(F)cc4)CC3)(Cc3ccc(F)cc3)C2=O)cc(OC)c1OC (centres unmarked) [Example 57, 1-(3,4,5-Trimethoxy-benzyl)-3-[2-[4-[1-(4-fluoro-benzyl)-1H-benzoimidazol-2-yl]-4-hydroxy-piperidin-1-yl]-ethyl]-3-(4-fluoro-phenylmethyl)-2-oxo-pyrrolidine]	155	114
COc1cc(CN2CCC(CCN3CCC(O)(c4nc5ccccc5n4Cc4ccc(F)cc4)CC3)(Cc3ccc(F)cc3F)C2=O)cc(OC)c1OC (centres unmarked) [Example 58, 1-(3,4,5-Trimethoxy-benzyl)-3-[2-[4-[1-(4-fluoro-benzyl)-1H-benzoimidazol-2-yl]-4-hydroxy-piperidin-1-yl]-ethyl]-3-(2,4-difluoro-phenylmethyl)-2-oxo-pyrrolidine]	151	345
CC(C)Oc1cccc(CC(=O)N2CCCC(CCN3CCC(C(=O)c4nc5ccccc5n4Cc4ccc(F)cc4)CC3)(c3ccc(Cl)c(Cl)c3)C2)c1 (centres unmarked) [Example 63, 1-(3-Isopropoxy-phenyl-acetyl)-3-[2-[4-[1-(4-fluoro-benzyl)-1H-benzoimidazole-2-carbonyl]-piperidin-1-yl]-ethyl]-3-(3,4-dichloro-phenyl)-piperidine]	79.4	279
CCOCCn1c(C(=O)C2CCN(CCC3(c4ccc(Cl)c(Cl)c4)CCN(C(=O)c4cc(OC)c(OC)c(OC)c4)C3)CC2)nc2ccccc21 (centres unmarked) [Example 83, 1-(3,4,5-Trimethoxy-benzoyl)-3-[2-[4-[1-(2-ethoxy-ethyl)-1H-benzoimidazole-2-carbonyl]-piperidin-1-yl]-ethyl]-3-(3,4-dichloro-phenyl)-pyrrolidine]	105	31
